Literature values, collected in patent publication US20130129859A1, “DOSING PROTOCOLS FOR INCREASING PROTEIN SYNTHESIS IN AN ACTIVE INDIVIDUAL” (priority 2009, published 2013).

**Q.** What does the source list for casein?
**A.** Whole-body protein synthesis (previously discussed study): best with casein; Leucine balance, slow versus fast protein meal matched for leucine content (young, healthy subjects): higher leucine balance
